Numbers after ± are expanded uncertainties.
Assay: molar heat capacity at constant pressure
Details: 328.1 K; 101.33 kPa; Crystal; Small sample (50 mg) DSC

molar heat capacity at constant pressure: 111.61 ± 2.3 J/K/mol
Structure (SMILES): [BH4-].[Na+] [sodium tetrahydroborate]

— the NIST ThermoML archive (doi:10.1016/j.tca.2008.03.009)
